From paper PMC7759869 (Biomedicines, 2020)
Where two headings read alike, the source gives them in different places. Marks after values point to notes of the source that are not given here.

Assays:
[1] = test system: human liver microsomes; assay: Oxidation of cabozantinib by hepatic microsomes of individual human donors (HPLC of metabolites); format: in vitro ADME; conditions: 50 µM cabozantinib, 20 min
Text: (§1) Cabozantinib was from MedChemExpress (Monmouth Junction, NJ, USA). Standard of cabozantinib N-oxide was purchased from Toronto Research Chemicals (Toronto, Canada). Ketoconazole, NADPH and other chemicals were all purchased from Merck (Darnstadt, Germany). The purity of all chemicals met the standards of American Chemical Society, unless otherwise noted. Male human hepatic microsomes (pooled sample) (sample LOT: 3043885) were from Gentest Corp. (Woburn, MA, USA). Microsomes from livers of twelve human donors were obtained from Gentest Corp. (Woburn, MA, USA) (Lot. no. HG43-1, HG103, HG74, HG93, HG24, HG27, HG23, HG32, HK31, HK34, HG03 and HG42). Each human microsomal sample was characterized for CYP, FMO, total protein contents and specific CYP activities by Gentest Corp. and reanalyzed by us by assays described in the protocols of Gentest Corp. Our data were similar to those reported by Gentest Corp. (Table 1). Human recombinant enzymes were used in the forms of Supersomes™ and obtained from Corning (Corning, NY, USA). In Supersomes™, microsomal fractions were isolated from insect cells that were transfected with baculovirus constructs containing cDNA of human CYP enzymes (CYP1A1/2, 1B1, 2A6, 2B6, 2C8/9/18/19/, 2D6, 2E1, 3A4). The Supersomes™ also express NADPH:CYP oxidoreductase (POR). However, because they are microsomes (particles of broken endoplasmic reticulum), other enzymes (proteins) of the endoplasmic reticulum membrane (like NADH:cytochrome b5 reductase and cytochrome b5) are also expressed at basal levels in these Supersomes™. We also utilized Supersomes™, which overexpressed cytochrome b5, in a molar ratio of CYP to cytochrome b5 of 1 to 5. In Supersomes™, where cytochrome b5 was not overexpressed (see above), pure cytochrome b5 was added to reach a molar ratio of CYP to cytochrome b5 of 1 to 5. Reconstitution of Supersomes™ with purified cytochrome b5 was performed as described previously. Human recombinant FMOs and AO were also used in the forms of Supersomes™ (Gentest Corp., Woburn, MA, USA). These microsomal fractions were isolated from insect cells that are transfected with baculovirus constructs containing cDNA of human FMO1, FMO3, FMO5 or AO enzymes.
(§2) The reaction was initiated by adding NADPH. In control incubations, either microsomes or CYP (FMO, AO) or NADPH were omitted. […] The reaction was stopped by extraction with ethyl acetate (2 × 1 mL). […] Cabozantinib metabolites separated by HPLC were characterized by mass spectroscopy (see further details below).

[2] = test system: human liver microsomes; assay: Correlation of CYP- and FMO-linked catalytic activities with amounts of cabozantinib metabolites formed in microsomes; format: in vitro ADME; conditions: twelve human microsomal samples; for Correlation coefficient (r) with CYP2C19 activity: (S)-Mephenytoin-4′-hydroxylase; for Correlation coefficient (r) with CYP2B6 activity: (S)-Mephenytoin-N-demethylase; for Correlation coefficient (r) with CYP2D6 activity: Buferalol-1′-hydroxylase; for Correlation coefficient (r) with CYP2E1 activity: Chlorzoxazone-6-hydroxylase; for Correlation coefficient (r) with CYP2A6 activity: Coumarine-7-hydroxylase; for Correlation coefficient (r) with CYP2C9 activity: Diclofenac-4′-hydroxylase; for Correlation coefficient (r) with CYP4A11 activity: Lauric acid-12-hydroxylase; for Correlation coefficient (r) with FMO activity: Methyl-p-tolyl sulfide oxidase; for Correlation coefficient (r) with CYP2C8 activity: Paclitaxel-6α-hydroxylase; for Correlation coefficient (r) with CYP1A2 activity: Phenacetin-O-deethylase; for Correlation coefficient (r) with Total CYPs: amount of metabolite formed vs total CYP content
Experimental: Data are expressed as mean ± SD. Data were analyzed using GraphPad Prism 7 (San Diego, CA, USA) using ANOVA with post-hoc Tukey HSD Test. All p-values are two-tailed and considered significant at the 0.05 level. […] Correlation coefficients (r) were based on a sample size of twelve for human microsomes. All p-values are two-tailed and considered significant at the 0.05 level.
To clarify these correlations, multivariate analysis was used to investigate the dependence of metabolite formation on these CYP activities. Activities of CYP2A6, -2B6 and -2C8 in each microsomal sample were combined in pairs with the activities of CYP3A4 to see if any combination of the activities led to an improvement in the correlation with CYP3A4.

[3] = molecular target: T1, CYP3A4 + cyt b5 (Homo sapiens, UniProt P08684); assay: Cabozantinib oxidation by recombinant CYP3A4 in the presence of cyt b5 (Supersomes); format: in vitro ADME; conditions: for VMax: formation of the metabolite from cabozantinib by CYP3A4 + cyt b5
T1 construct: purchased Corning (Corning, NY, USA); host or cells: insect cells (baculovirus)
Text: as §1, §2

[4] = test system: CYPs in human liver; assay: Contributions of CYP enzymes to formation of cabozantinib metabolites in human livers; format: in vitro ADME; conditions: calculated from velocities with cyt b5 and CYP expression levels in human liver
[5] = test system: human liver microsomes; assay: Oxidation of cabozantinib by hepatic microsomes of individual human donors (HPLC of metabolites); format: in vitro ADME; conditions: 50 µM cabozantinib, 20 min; remark: listed apart in the source
[6] = molecular target: CYP3A4 (Homo sapiens, UniProt P08684); assay: Kinetics of cabozantinib oxidation by recombinant CYP3A4 (Supersomes); format: in vitro ADME; design: purchased Corning (Corning, NY, USA); host or cells: insect cells (baculovirus); conditions: formation of the metabolite from cabozantinib by CYP3A4 without cyt b5
Text: Cabozantinib was from MedChemExpress (Monmouth Junction, NJ, USA). Standard of cabozantinib N-oxide was purchased from Toronto Research Chemicals (Toronto, Canada). Ketoconazole, NADPH and other chemicals were all purchased from Merck (Darnstadt, Germany). The purity of all chemicals met the standards of American Chemical Society, unless otherwise noted. Male human hepatic microsomes (pooled sample) (sample LOT: 3043885) were from Gentest Corp. (Woburn, MA, USA). Microsomes from livers of twelve human donors were obtained from Gentest Corp. (Woburn, MA, USA) (Lot. no. HG43-1, HG103, HG74, HG93, HG24, HG27, HG23, HG32, HK31, HK34, HG03 and HG42). Each human microsomal sample was characterized for CYP, FMO, total protein contents and specific CYP activities by Gentest Corp. and reanalyzed by us by assays described in the protocols of Gentest Corp. Our data were similar to those reported by Gentest Corp. (Table 1). Human recombinant enzymes were used in the forms of Supersomes™ and obtained from Corning (Corning, NY, USA). In Supersomes™, microsomal fractions were isolated from insect cells that were transfected with baculovirus constructs containing cDNA of human CYP enzymes (CYP1A1/2, 1B1, 2A6, 2B6, 2C8/9/18/19/, 2D6, 2E1, 3A4). The Supersomes™ also express NADPH:CYP oxidoreductase (POR). […]

[7] = molecular target: CYP3A (cabozantinib oxidation: formation of cabozantinib N-oxide) (Homo sapiens, UniProt P08684); assay: Inhibition study: effect of CYP inhibitors on cabozantinib oxidation in pooled human liver microsomes; conditions: human
Experimental: (§3) Inhibition studies in pooled human liver microsomes were conducted with six inhibitors. […] The IC50 values for employed inhibitors were determined by the procedure described previously. […] Then, mixtures were incubated for a further 20 min at 37 °C.

[8] = molecular target: CYP3A (cabozantinib oxidation: formation of desmethyl cabozantinib) (Homo sapiens, UniProt P08684); assay: as above; conditions: human
Experimental: as §3

[9] = molecular target: CYP3A (cabozantinib oxidation: formation of monohydroxy cabozantinib) (Homo sapiens, UniProt P08684); assay: as above; conditions: human
Experimental: as §3

[10] = test system: RET; conditions: estimated; cited from earlier work
[11] = test system: MET; conditions: read-out: IC50 for MET; estimated; cited from earlier work
[12] = test system: VEGFR2; conditions: read-out: IC50 for VEGFR2; estimated; cited from earlier work
[13] = molecular target: cabozantinib oxidation in pooled human liver microsomes (Homo sapiens, UniProt P08684); assay: Inhibition study: effect of CYP inhibitors on cabozantinib oxidation in pooled human liver microsomes; conditions: pooled human liver microsomes, 50 µM cabozantinib
Experimental: as §3

[14] = human liver microsomes sample HG03
[15] = human liver microsomes sample HG24
[16] = human liver microsomes sample HG32
[17] = human liver microsomes sample HG42
[18] = human liver microsomes sample HG43
[19] = human liver microsomes sample HG74
[20] = human liver microsomes sample HG93
[21] = human liver microsomes sample HG103
[22] = human liver microsomes sample HK31
[23] = human liver microsomes sample HK34
[24] = human liver microsomes sample HK23
[25] = human liver microsomes sample HK27

T1 sequence (P08684 whole entry): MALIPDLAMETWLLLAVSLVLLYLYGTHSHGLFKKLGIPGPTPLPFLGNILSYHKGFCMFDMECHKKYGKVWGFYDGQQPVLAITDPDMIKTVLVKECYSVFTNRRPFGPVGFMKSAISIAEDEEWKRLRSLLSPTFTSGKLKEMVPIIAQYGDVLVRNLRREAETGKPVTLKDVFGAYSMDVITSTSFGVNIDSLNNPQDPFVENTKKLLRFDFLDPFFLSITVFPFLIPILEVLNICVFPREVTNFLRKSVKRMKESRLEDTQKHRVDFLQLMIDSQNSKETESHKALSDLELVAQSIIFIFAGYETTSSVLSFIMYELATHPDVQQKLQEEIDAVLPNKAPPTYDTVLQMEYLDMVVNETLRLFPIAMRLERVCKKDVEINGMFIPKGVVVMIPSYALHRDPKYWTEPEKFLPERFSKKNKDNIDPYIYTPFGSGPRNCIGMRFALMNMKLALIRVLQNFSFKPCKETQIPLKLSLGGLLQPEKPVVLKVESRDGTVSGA
cabozantinib oxidation in pooled human liver microsomes, sequence (P08684 2-503): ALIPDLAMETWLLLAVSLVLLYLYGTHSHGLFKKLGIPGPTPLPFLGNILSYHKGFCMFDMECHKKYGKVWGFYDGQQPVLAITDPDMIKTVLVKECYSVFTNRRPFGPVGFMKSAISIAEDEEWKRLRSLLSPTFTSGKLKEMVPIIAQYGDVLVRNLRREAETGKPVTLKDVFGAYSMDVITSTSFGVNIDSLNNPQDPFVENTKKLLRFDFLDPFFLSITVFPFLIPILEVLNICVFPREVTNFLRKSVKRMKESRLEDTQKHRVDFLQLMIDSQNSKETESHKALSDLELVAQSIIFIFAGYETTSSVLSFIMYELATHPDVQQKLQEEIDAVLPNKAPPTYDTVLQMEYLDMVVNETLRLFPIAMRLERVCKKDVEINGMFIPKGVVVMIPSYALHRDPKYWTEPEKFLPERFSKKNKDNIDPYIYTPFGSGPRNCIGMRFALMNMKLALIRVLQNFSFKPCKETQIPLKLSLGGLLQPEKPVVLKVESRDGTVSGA
CYP3A4, sequence (P08684 whole entry): as the sequence (P08684 whole entry) above
CYP3A (cabozantinib oxidation: formation of monohydroxy cabozantinib), sequence (P08684 2-503): as the sequence (P08684 2-503) above
CYP3A (cabozantinib oxidation: formation of desmethyl cabozantinib), sequence (P08684 2-503): as above
CYP3A (cabozantinib oxidation: formation of cabozantinib N-oxide), sequence (P08684 2-503): as above

Compound	Amounts of cabozantinib metabolites [1, 14]	Amounts of cabozantinib metabolites [1, 15]	Amounts of cabozantinib metabolites [1, 16]	Amounts of cabozantinib metabolites [1, 17]	Amounts of cabozantinib metabolites [1, 18]	Amounts of cabozantinib metabolites [1, 19]	Amounts of cabozantinib metabolites [1, 20]	Amounts of cabozantinib metabolites [1, 21]	Amounts of cabozantinib metabolites [1, 22]	Amounts of cabozantinib metabolites [1, 23]	Correlation coefficient (r) with CYP2C19 activity [2]	Correlation coefficient (r) with CYP2B6 activity [2]	Correlation coefficient (r) with CYP2D6 activity [2]	Correlation coefficient (r) with CYP2E1 activity [2]	Correlation coefficient (r) with CYP2A6 activity [2]	Correlation coefficient (r) with CYP2C9 activity [2]	Correlation coefficient (r) with CYP4A11 activity [2]	Correlation coefficient (r) with FMO activity [2]	Correlation coefficient (r) with CYP2C8 activity [2]	Correlation coefficient (r) with CYP1A2 activity [2]	other results
COc1cc2c(Oc3ccc(NC(=O)C4(C(=O)Nc5ccc(F)cc5)CC4)cc3)ccnc2cc1O [M2, desmethyl cabozantinib]	0.335 peak area/incubation time	0.149 peak area/incubation time	0.185 peak area/incubation time	0.329 peak area/incubation time	0.625 peak area/incubation time	0.256 peak area/incubation time	0.371 peak area/incubation time	0.144 peak area/incubation time	0.377 peak area/incubation time	0.305 peak area/incubation time	0.033	0.695 *	−0.015	0.140	0.841 ***	0.086	0.193	0.315	0.654 *	0.280	Correlation coefficient (r) with Total CYPs [2]: 0.794 **; VMax [3]: 5.70 ± 0.24 peak area/min/nmol CYP; Contribution of CYPs other than CYP3A4 to formation of the metabolite in human liver [4]: less than 1%; Amounts of cabozantinib metabolites [5, 24]: 0.130 peak area/incubation time; Amounts of cabozantinib metabolites [5, 25]: 0.467 peak area/incubation time; VMax [6]: 1.44 ± 0.03 peak area/min/nmol CYP
CC(=O)N1CCN(c2ccc(OCC3COC(Cn4ccnc4)(c4ccc(Cl)cc4Cl)O3)cc2)CC1 (centres unmarked) [ketoconazole]	–	–	–	–	–	–	–	–	–	–	–	–	–	–	–	–	–	–	–	–	IC50 at 20 min [7]: < 10 nM; IC50 at 20 min [8]: < 10 nM; IC50 at 20 min [9]: < 10 nM
COc1cc2c(Oc3ccc(NC(=O)C4(C(=O)Nc5ccc(F)cc5)CC4)cc3)cc[n+]([O-])c2cc1OC [M3, cabozantinib N-oxide]	1.672 peak area/incubation time	0.752 peak area/incubation time	1.338 peak area/incubation time	1.609 peak area/incubation time	3.491 peak area/incubation time	1.106 peak area/incubation time	1.935 peak area/incubation time	0.644 peak area/incubation time	1.537 peak area/incubation time	1.359 peak area/incubation time	−0.021	0.776 **	−0.043	0.030	0.728 **	0.130	0.223	0.341	0.737 **	0.216	Correlation coefficient (r) with Total CYPs [2]: 0.811 **; Increase of oxidation / metabolite formation by co-expression of cyt b5 with CYP3A4 ([3]; Supersomes with cyt b5 vs without, 50 µM cabozantinib): 4.6 fold; VMax [3]: 9.96 ± 0.92 peak area/min/nmol CYP; Contribution of CYPs other than CYP3A4 to formation of the metabolite in human liver [4]: less than 1%; Amounts of cabozantinib metabolites [5, 24]: 0.607 peak area/incubation time; Amounts of cabozantinib metabolites [5, 25]: 2.228 peak area/incubation time; IC50 [10]: > 1000 nM; IC50 [11]: 190 nM; IC50 [12]: 140 nM; VMax [6]: 1.54 ± 0.04 peak area/min/nmol CYP
Cc1ccc(-c2c(-c3nn(C)c4ncnc(N5CC[C@H](N6CCCCC6)C5)c34)cnn2C)cc1 [CYP3cide]	–	–	–	–	–	–	–	–	–	–	–	–	–	–	–	–	–	–	–	–	IC50 ([13]; read-out: IC50 for inhibition of formation of cabozantinib N-oxide): < 10 nM; IC50 ([13]; read-out: IC50 for inhibition of formation of desmethyl cabozantinib): < 10 nM; IC50 ([13]; read-out: IC50 for inhibition of formation of monohydroxy cabozantinib): 1120 nM
